# System: P. acnes
# Assay: Agar dilution method, growth of P. acnes and MIC, single compounds
# Assay type: cell-based, Propionibacterium acnes
# Parameters: key to Growth Index Plate 1 / Growth Index Plate 2 / Growth Index Plate 3 / Growth Index Avg: +++: confluent growth (comparable to control); ++: less confluent growth; +: marked reduction in growth to multiple tiny, single colonies; −: no growth present
# Details: for MIC: Cutibacterium acnes, read-out: MIC (mg/mL) as per P-11-0007 or P-11-0008 Addendum A
# Experimental: Several compounds including fatty acids such as DGLA, 15-OHEPA, and 15-HETrE were tested to determine their capacity to inhibit the growth of P. acnes. In an exemplary method, an agar dilution method was used to determine the minimum inhibitory concentration (MIC) of each tested compound. Briefly, the agar dilution method involved preparing a series of concentrations of each compound (e.g., nicotinamide, benzoyl peroxide, adapalene, metronidazole, DGLA, 15-OHEPA, and 15-HETrE) in a Reinforced Clostridial Agar (RCA) media that facilitates growth of P. acnes under anaerobic conditions. An inoculum of P. acnes was prepared by incubation of P. acnes for approximately seven days at 35-37° C. to achieve a ≧1.0 OD600 inoculum of P. acnes in RCM broth. A portion of this inoculum was then added to the surface of each plate as a 10 μL spot and incubated at 35-37° C. for 72 hours or more. Growth of P. acnes was then observed and compared to control plates in which no compound has been added, and positive inhibition plates prepared with erythromycin. […] The growth of P. acnes in the presence of nicotinamide, benzoyl peroxide, adapalene, metronidazole, DGLA, 15-OHEPA, and 15-HETrE was determined with varying concentrations of the compound (see, Table 2). Next, the MIC was determined as the concentration at which a marked reduction (+) occurs in the appearance of growth on the test plate (as per Clinical and Laboratory Standards Institute M11-A7).
# [1] = compound alone, MIC = concentration with marked reduction (+) of growth
SMILES,MIC [1] [mg/mL],Growth Index Avg (compound at 0.2 mg/mL),Growth Index Plate 1 (compound at 0.2 mg/mL),Growth Index Plate 2 (compound at 0.2 mg/mL),Growth Index Plate 3 (compound at 0.2 mg/mL),Growth Index Avg (compound at 0.4 mg/mL),Growth Index Plate 1 (compound at 0.4 mg/mL),Growth Index Plate 2 (compound at 0.4 mg/mL),Growth Index Plate 3 (compound at 0.4 mg/mL),Growth Index Avg (compound at 0.6 mg/mL),Growth Index Plate 1 (compound at 0.6 mg/mL),Growth Index Plate 2 (compound at 0.6 mg/mL),Growth Index Plate 3 (compound at 0.6 mg/mL),Growth Index Avg (compound at 0.8 mg/mL),Growth Index Plate 1 (compound at 0.8 mg/mL),Growth Index Plate 2 (compound at 0.8 mg/mL),Growth Index Plate 3 (compound at 0.8 mg/mL),Growth Index Avg (compound at 1.0 mg/mL),Growth Index Plate 1 (compound at 1.0 mg/mL),Growth Index Plate 2 (compound at 1.0 mg/mL),also measured
NC(=O)c1cccnc1 [Nicotinamide],10 to 15,,,,,,,,,,,,,,,,,,,,Growth Index Avg (compound at 1 mg/mL): +++; Growth Index Plate 1 (compound at 1 mg/mL): +++; Growth Index Plate 2 (compound at 1 mg/mL): +++; Growth Index Plate 3 (compound at 1 mg/mL): +++; Growth Index Avg (compound at 5 mg/mL): +++; Growth Index Plate 1 (compound at 5 mg/mL): +++; Growth Index Plate 2 (compound at 5 mg/mL): +++; Growth Index Plate 3 (compound at 5 mg/mL): +++; Growth Index Avg (compound at 10 mg/mL): ++; Growth Index Plate 1 (compound at 10 mg/mL): ++; Growth Index Plate 2 (compound at 10 mg/mL): ++; Growth Index Plate 3 (compound at 10 mg/mL): ++; Growth Index Avg (compound at 15 mg/mL): +; Growth Index Plate 1 (compound at 15 mg/mL): −; Growth Index Plate 2 (compound at 15 mg/mL): +; Growth Index Plate 3 (compound at 15 mg/mL): +; Growth Index Avg (compound at 25 mg/mL): −; Growth Index Plate 1 (compound at 25 mg/mL): −; Growth Index Plate 2 (compound at 25 mg/mL): −; Growth Index Plate 3 (compound at 25 mg/mL): −
"COc1ccc(-c2ccc3cc(C(=O)O)ccc3c2)cc1C12CC3CC(CC(C3)C1)C2 [Adapalene, 6-[3-(1-adamantyl)-4-methoxyphenyl]-2-naphthoic acid]",> 0.8,+++,+++,+++,+++,+++,+++,+++,+++,++,++,++,+++,++,++,++,++,,,,MIC (mg/mL) as per P-11-0007 or P-11-0008 Addendum A [1]: > 0.8 mg/mL
Cc1ncc([N+](=O)[O-])n1CCO [Metronidazole],> 1,+++,+++,+++,+++,+++,+++,+++,+++,+++,+++,+++,+++,+++,+++,+++,+++,+++,+++,++,Growth Index Plate 3 (compound at 1.0 mg/mL): +++
O=C(OOC(=O)c1ccccc1)c1ccccc1 [Benzoyl Peroxide],0.6 to 0.8,+++,+++,+++,+++,+++,+++,+++,+++,++,++,+++,++,+,+,+,+,−,−,−,Growth Index Plate 3 (compound at 1.0 mg/mL): −

# — patent US20130274338A1, “PHARMACEUTICAL COMPOSITIONS COMPRISING DGLA, 15-OHEPA, AND/OR 15-HETRE AND METHODS OF REDUCING SEBUM PRODUCTION USING SAME” (priority 2012, published 2013)
